Experimental data taken from ChEMBL document CHEMBL5523736, “The First Discovery of Marine Polyoxygenated Cembranolides as Potential Agents for the Treatment of Ulcerative Colitis” (J Med Chem, 2024).
Active and inactive are the calls of the source. No cut-off for these calls is given here.

Experiments:
[1] = system: Mus musculus; assay: Effect on DSS-induced body weight loss in ulcerative colitis male C57BL/6J mouse model at 100 mg/kg, po administered for 8 days; format: functional, organism-based; conditions: time 8.0 day
[2] = system: RAW264.7; assay: Antiinflammatory activity in mouse RAW264.7 cells assessed as inhibition of LPS-induced NO production incubated for 24 hrs; format: functional, cell-based; conditions: RAW264.7, 24 h
[3] = system: RAW264.7; assay: Antiinflammatory activity in mouse RAW264.7 cells assessed as inhibition of LPS-induced NO production at 20 uM incubated for 24 hrs relative to control; format: functional
[4] = Cytotoxicity against mouse RAW264.7 cells assessed as cell viability at 20 uM incubated for 24 hrs by CCK8 assay relative to control; format: toxicity, cell-based; conditions: read-out: Activity
[5] = system: RAW264.7; assay: Antiinflammatory activity in LPS-induced mouse RAW264.7 cells assessed as reduction in IL-1beta mRNA expression level at 20 uM by qRT-PCR analysis; format: functional, cell-based
[6] = system: RAW264.7; assay: Antiinflammatory activity in LPS-induced mouse RAW264.7 cells assessed as reduction in IL-6 mRNA expression level at 20 uM by qRT-PCR analysis; format: functional, cell-based
[7] = system: RAW264.7; assay: Antiinflammatory activity in LPS-induced mouse RAW264.7 cells assessed as reduction in TNF-alpha mRNA expression level at 20 uM by qRT-PCR analysis; format: functional, cell-based
[8] = system: RAW264.7; assay: Antiinflammatory activity in LPS-induced mouse RAW264.7 cells assessed as reduction in iNOS mRNA expression level at 20 uM by qRT-PCR analysis; format: functional, cell-based
[9] = system: RAW264.7; assay: Antiinflammatory activity in LPS-induced mouse RAW264.7 cells assessed as inhibition of IL-6 production at 20 uM by ELISA; format: functional, cell-based
[10] = system: RAW264.7; assay: Antiinflammatory activity in LPS-induced mouse RAW264.7 cells assessed as inhibition of TNF-alpha production at 20 uM by ELISA; format: functional, cell-based
[11] = system: RAW264.7; assay: Antiinflammatory activity in LPS-induced mouse RAW264.7 cells assessed as reduction in IL-1beta gene expression by heat map analysis; format: functional, cell-based
[12] = system: RAW264.7; assay: Antiinflammatory activity in LPS-induced mouse RAW264.7 cells assessed as reduction in IL-6 gene expression by heat map analysis; format: functional, cell-based
[13] = system: RAW264.7; assay: Antiinflammatory activity in LPS-induced mouse RAW264.7 cells assessed as reduction in Cxcl10 gene expression by heat map analysis; format: functional, cell-based
[14] = system: RAW264.7; assay: Antiinflammatory activity in LPS-induced mouse RAW264.7 cells assessed as reduction in Ccl7 gene expression by heat map analysis; format: functional, cell-based
[15] = system: RAW264.7; assay: Antiinflammatory activity in LPS-induced mouse RAW264.7 cells assessed as reduction in Ccl2 gene expression by heat map analysis; format: functional, cell-based
[16] = system: RAW264.7; assay: Inhibition of NF-kappaB transcriptional activity in LPS-induced mouse RAW264.7 cells at 20 uM by luciferase based assay; format: cell-based
[17] = molecular target: Transcription factor p65 (Mus musculus) (UniProt Q04207); assay: Inhibition of p65 activation in LPS-induced mouse RAW264.7 cells at 20 uM by Western blot analysis; format: cell-based
Chain of Transcription factor p65 (Mus musculus) (Q04207 whole entry): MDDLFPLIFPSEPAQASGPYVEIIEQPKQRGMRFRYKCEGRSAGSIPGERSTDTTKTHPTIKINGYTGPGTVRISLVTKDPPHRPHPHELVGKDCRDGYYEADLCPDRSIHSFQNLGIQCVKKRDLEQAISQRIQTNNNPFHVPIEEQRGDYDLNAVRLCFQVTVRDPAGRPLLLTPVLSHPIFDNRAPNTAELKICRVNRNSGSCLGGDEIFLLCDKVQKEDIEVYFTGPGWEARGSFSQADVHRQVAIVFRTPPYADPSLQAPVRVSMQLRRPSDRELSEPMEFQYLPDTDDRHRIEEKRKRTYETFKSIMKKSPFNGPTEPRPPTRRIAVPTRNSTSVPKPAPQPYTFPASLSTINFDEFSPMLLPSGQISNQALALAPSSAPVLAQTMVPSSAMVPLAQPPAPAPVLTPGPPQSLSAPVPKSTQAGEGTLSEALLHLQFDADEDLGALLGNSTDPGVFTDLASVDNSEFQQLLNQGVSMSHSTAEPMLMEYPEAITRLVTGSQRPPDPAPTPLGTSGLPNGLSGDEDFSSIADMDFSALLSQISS

[18] = system: RAW264.7; assay: Inhibition of ERK phosphorylation in LPS-induced mouse RAW264.7 cells at 20 uM by Western blot analysis; format: cell-based
[19] = molecular target: c-Jun N-terminal kinase (Mus musculus) (UniProt Q91Y86+Q9WTU6+Q61831); assay: Inhibition of JNK phosphorylation in LPS-induced mouse RAW264.7 cells at 20 uM by Western blot analysis; format: cell-based
Chain of c-Jun N-terminal kinase (Mus musculus) (Q61831 whole entry, looked up): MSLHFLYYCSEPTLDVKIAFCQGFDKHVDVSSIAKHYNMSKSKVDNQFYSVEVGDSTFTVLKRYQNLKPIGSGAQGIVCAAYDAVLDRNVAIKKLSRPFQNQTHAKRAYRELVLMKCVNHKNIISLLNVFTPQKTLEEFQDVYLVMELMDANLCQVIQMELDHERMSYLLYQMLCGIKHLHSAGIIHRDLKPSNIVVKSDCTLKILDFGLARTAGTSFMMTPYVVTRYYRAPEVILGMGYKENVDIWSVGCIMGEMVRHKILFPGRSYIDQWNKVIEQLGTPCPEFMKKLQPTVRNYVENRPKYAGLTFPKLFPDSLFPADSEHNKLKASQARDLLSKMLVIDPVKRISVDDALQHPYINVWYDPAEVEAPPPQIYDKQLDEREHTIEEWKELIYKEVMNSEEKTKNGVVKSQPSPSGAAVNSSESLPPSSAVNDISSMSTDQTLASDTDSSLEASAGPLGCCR
Chain of c-Jun N-terminal kinase (Mus musculus) (Q91Y86 whole entry, looked up): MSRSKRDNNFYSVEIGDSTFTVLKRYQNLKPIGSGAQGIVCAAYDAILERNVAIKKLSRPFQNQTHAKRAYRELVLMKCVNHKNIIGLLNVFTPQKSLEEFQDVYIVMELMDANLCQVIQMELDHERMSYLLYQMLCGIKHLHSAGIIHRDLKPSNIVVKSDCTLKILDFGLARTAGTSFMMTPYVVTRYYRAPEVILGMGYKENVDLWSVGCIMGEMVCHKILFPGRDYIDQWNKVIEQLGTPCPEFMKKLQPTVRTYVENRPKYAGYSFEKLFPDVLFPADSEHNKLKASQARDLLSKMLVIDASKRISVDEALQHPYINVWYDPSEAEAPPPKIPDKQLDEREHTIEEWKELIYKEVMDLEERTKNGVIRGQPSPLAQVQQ
Chain of c-Jun N-terminal kinase (Mus musculus) (Q9WTU6 whole entry, looked up): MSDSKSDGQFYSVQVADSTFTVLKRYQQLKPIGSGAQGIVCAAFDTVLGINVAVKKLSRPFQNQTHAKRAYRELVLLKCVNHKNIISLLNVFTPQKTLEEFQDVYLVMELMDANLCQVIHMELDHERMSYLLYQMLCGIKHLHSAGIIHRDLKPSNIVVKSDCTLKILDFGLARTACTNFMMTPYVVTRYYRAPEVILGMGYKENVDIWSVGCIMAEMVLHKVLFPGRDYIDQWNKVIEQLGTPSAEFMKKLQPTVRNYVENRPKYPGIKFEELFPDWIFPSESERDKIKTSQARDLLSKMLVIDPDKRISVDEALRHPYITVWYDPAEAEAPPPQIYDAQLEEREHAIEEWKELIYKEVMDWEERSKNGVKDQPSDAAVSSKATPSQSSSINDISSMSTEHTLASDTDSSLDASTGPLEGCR

[20] = system: RAW264.7; assay: Inhibition of P38 phosphorylation in LPS-induced mouse RAW264.7 cells at 20 uM by Western blot analysis; format: cell-based
[21] = system: Mus musculus; assay: Effect on DSS-induced body weight loss in ulcerative colitis male C57BL/6J mouse model at 15 mg/kg, po administered for 8 days; format: functional, organism-based; conditions: time 8.0 day
[22] = system: Mus musculus; assay: Antiinflammatory activity against DSS-induced ulcerative colitis C57BL/6J mouse model assessed as reduction in DAI score at 15 mg/kg, po administered for 8 days; format: functional, organism-based; conditions: time 8.0 day
[23] = system: Mus musculus; assay: Antiinflammatory activity against DSS-induced ulcerative colitis C57BL/6J mouse model assessed as reduction in H and E histopathological score at 15 mg/kg, po administered for 8 days by H and E staining based analysis; format: functional, organism-based; conditions: time 8.0 day
[24] = system: Mus musculus; assay: Antiinflammatory activity against DSS-induced ulcerative colitis C57BL/6J mouse model assessed as reduction in intestinal epithelial destruction in colon at 15 mg/kg, po administered for 8 days by Hand E staining based histopathological analysis; format: functional, organism-based; conditions: time 8.0 day
[25] = system: Mus musculus; assay: Antiinflammatory activity against DSS-induced ulcerative colitis C57BL/6J mouse model assessed as reduction in inflammatory cell infiltration in colon at 15 mg/kg, po administered for 8 days by Hand E staining based histopathological analysis; format: functional, organism-based; conditions: time 8.0 day
[26] = system: Mus musculus; assay: Antiinflammatory activity against DSS-induced ulcerative colitis C57BL/6J mouse model assessed as reduction in goblet cell loss in colon at 15 mg/kg, po administered for 8 days by alcian blue staining based analysis; format: functional, organism-based; conditions: time 8.0 day
[27] = system: Mus musculus; assay: Antiinflammatory activity against DSS-induced ulcerative colitis C57BL/6J mouse model assessed as increase in […] protein level in colon at 15 mg/kg, po administered for 8 days by Western blot analysis; format: functional, organism-based; conditions: time 8.0 day
[28] = system: Mus musculus; assay: Antiinflammatory activity against DSS-induced ulcerative colitis C57BL/6J mouse model assessed as increase in CLAUDIN-1 protein level in colon at 15 mg/kg, po administered for 8 days by Western blot analysis; format: functional, organism-based; conditions: time 8.0 day
[29] = system: Mus musculus; assay: Antiinflammatory activity against DSS-induced ulcerative colitis C57BL/6J mouse model assessed as increase in OCCLUDIN protein level in colon at 15 mg/kg, po administered for 8 days by Western blot analysis; format: functional, organism-based; conditions: time 8.0 day
[30] = system: Mus musculus; assay: Antiinflammatory activity against DSS-induced ulcerative colitis C57BL/6J mouse model assessed as reduction in IL-1beta mRNA expression level in colon at 15 mg/kg, po administered for 8 days by qRT-PCR analysis; format: functional, organism-based; conditions: time 8.0 day
[31] = system: Mus musculus; assay: Antiinflammatory activity against DSS-induced ulcerative colitis C57BL/6J mouse model assessed as reduction in TNF-alpha mRNA expression level in colon at 15 mg/kg, po administered for 8 days by qRT-PCR analysis; format: functional, organism-based; conditions: time 8.0 day
[32] = system: Mus musculus; assay: Antiinflammatory activity against DSS-induced ulcerative colitis C57BL/6J mouse model assessed as reduction in iNOS mRNA expression level in colon at 15 mg/kg, po administered for 8 days by qRT-PCR analysis; format: functional, organism-based; conditions: time 8.0 day
[33] = system: Mus musculus; assay: Antiinflammatory activity against DSS-induced ulcerative colitis C57BL/6J mouse model assessed as reduction in Ccl2 mRNA expression level in colon at 15 mg/kg, po administered for 8 days by qRT-PCR analysis; format: functional, organism-based; conditions: time 8.0 day

With `Nc1ccc(O)c(C(=O)O)c1` the Activity [1] was “inactive”.

With `C=C1C(=O)O[C@]2(C)CC[C@@H]1C[C@@H]1O[C@@]1(C)CC/C=C(\C)CCC2=O` the IC50 [2] was 900 nM, the inhibition at 20 µM [3] was 134% and the viability at 24 h, 20 µM [4] was 82.7%. For the same molecule, the Activity [5] was “Active”, the Activity [6] was “Active” and the Activity [7] was “Active”. For the same molecule, the Activity [8] was “Active”, the Activity [9] was “Active” and the Activity [10] was “Active”. The Activity [11] was “Active”, the Activity [12] was “Active” and the Activity [13] was “Active”. The Activity [14] was “Active”, the Activity [15] was “Active” and the inhibition [16] was “Active”. For the same molecule, the inhibition [17] was “Active”, the inhibition [18] was “Active” and the inhibition [19] was “Active”. For the same molecule, the inhibition [20] was “inactive”, the Activity [21] was “inactive” and the Activity [22] was “Active”. For the same molecule, the Activity [23] was “Active”, the Activity [24] was “Active” and the Activity [25] was “Active”. For the same molecule, the Activity [26] was “Active”, the Activity [27] was “Active” and the Activity [28] was “Active”. For the same molecule, the Activity [29] was “Active”, the Activity [30] was “Active” and the Activity [31] was “Active”. The Activity [32] was “Active” and the Activity [33] was “Active”.
